Experiment [1] addresses T1, Nuclear receptor ROR-alpha (Homo sapiens) (UniProt P35398).
T1 sequence (whole entry): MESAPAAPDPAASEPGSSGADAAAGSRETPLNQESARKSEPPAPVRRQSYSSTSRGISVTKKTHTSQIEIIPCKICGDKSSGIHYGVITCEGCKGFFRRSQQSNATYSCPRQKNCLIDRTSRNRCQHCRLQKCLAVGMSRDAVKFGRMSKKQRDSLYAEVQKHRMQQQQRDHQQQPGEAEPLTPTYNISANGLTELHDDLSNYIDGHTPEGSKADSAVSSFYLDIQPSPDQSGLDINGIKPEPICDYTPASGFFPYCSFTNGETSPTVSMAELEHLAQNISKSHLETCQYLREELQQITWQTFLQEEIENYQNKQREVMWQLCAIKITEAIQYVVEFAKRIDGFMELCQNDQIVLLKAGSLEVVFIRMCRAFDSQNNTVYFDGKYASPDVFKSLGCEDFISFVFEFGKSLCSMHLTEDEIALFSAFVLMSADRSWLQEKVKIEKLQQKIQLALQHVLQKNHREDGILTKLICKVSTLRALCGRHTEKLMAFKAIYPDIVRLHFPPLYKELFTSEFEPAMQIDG
The experiment in a line: Inhibition of GAL4-tagged RORalpha at 100 uM by luciferase assay.

A short description of experiment [2]: Inhibition of HSV1 GAL4-tagged VP16 at 100 uM by luciferase assay.
Experiment [3] addresses T2, Steroidogenic factor 1 (Homo sapiens, UniProt Q13285). Briefly: Inhibition of GAL4-tagged NR5A1 at 100 uM by luciferase assay.
The target of experiment [4] is T2, Steroidogenic factor 1. Briefly: Inhibition of GAL4-tagged NR5A1 by luciferase assay.
Experiment [5] can be described thus: Inhibition of HSV1 GAL4-tagged VP16 by luciferase assay.
The target of experiment [6] is T3, Nuclear receptor ROR-alpha (Homo sapiens, UniProt P35398).
T3 sequence (P35398 whole entry): T1 sequence (whole entry)
The experiment in a line: Inhibition of GAL4-tagged RORalpha by luciferase assay.

SMILES strings stand for the structures.

T2 sequence (Q13285 whole entry, the tested form may be a part): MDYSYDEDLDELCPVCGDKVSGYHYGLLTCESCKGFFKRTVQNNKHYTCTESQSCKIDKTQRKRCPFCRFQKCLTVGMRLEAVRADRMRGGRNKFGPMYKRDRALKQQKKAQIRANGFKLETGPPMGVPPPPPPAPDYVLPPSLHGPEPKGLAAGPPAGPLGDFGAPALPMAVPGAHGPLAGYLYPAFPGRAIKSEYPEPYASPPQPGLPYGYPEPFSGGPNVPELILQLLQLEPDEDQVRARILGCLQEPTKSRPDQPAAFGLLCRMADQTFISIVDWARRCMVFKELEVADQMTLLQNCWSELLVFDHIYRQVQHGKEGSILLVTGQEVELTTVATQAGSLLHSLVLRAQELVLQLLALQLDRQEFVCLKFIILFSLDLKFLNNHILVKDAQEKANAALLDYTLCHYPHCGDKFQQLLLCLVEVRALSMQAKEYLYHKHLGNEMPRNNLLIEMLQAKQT

Turning to `CCOC(=O)C(C)Oc1cccc2c(=O)n(C(C)C(=O)Nc3ccc4c(c3)OCCO4)ccc12` (stereo unspecified), the inhibition in experiment [1], in experiment [2] and in experiment [3] was less than 50% throughout.
`CCOC(=O)C(C)Oc1cccc2c(=O)n(CC(=O)N(C)c3ccc4c(c3)OCCO4)ccc12` (stereo unspecified) came in with an IC50 in experiment [4] of 3.57 µM. Further, the inhibition in experiment [1] and in experiment [2] was less than 50% in each case.
`CCOC(=O)C(C)(C)Oc1cccc2c(=O)n(CC(=O)Nc3ccc4c(c3)OCCO4)ccc12`: the IC50 was 0.59 µM in experiment [4] and greater than 33 µM in experiment [5]. The inhibition in experiment [1] was less than 50%.
On to `CCOC(=O)C(C)Oc1cccc2c(=O)n(CC(=O)NCc3ccco3)ccc12` (stereo unspecified), for which the IC50 in experiment [4] is 4.71 µM; in experiment [6], greater than 33 µM. For the same compound, the inhibition in experiment [2] was less than 50%.
For `CCOC(=O)C(C)Oc1ccc2c(=O)n(CC(=O)Nc3ccc4c(c3)OCCO4)ccc2c1` (stereo unspecified), the inhibition in experiment [1], in experiment [2] and in experiment [3] was less than 50% throughout.
As for `CCOC(=O)C(C)Oc1cccc2c(=O)n(CC(=O)Nc3ccc(CC)cc3)ccc12` (stereo unspecified), the values for the IC50 in experiment [4], in experiment [6] and in experiment [5] were 0.11 µM, 25 µM and greater than 33 µM, respectively.
Take `CCOC(=O)C(C)Oc1cccc2c(=O)n(CC(=O)NCCc3ccccc3)ccc12` (stereo unspecified): the IC50 was 0.36 µM in experiment [4] and greater than 33 µM in experiment [6]. The inhibition in experiment [2] is less than 50%.
Regarding `CCOC(=O)C(C)Oc1cccc2c(=O)n(CC(=O)Nc3ccc([N+](=O)[O-])cc3)ccc12` (stereo unspecified), in experiment [4], the IC50 stood at 0.53 µM. The inhibition in experiment [1] and in experiment [2] was less than 50% throughout.
In experiment [4], `CCOC(=O)C(C)Oc1cccc2c(=O)n(CCC(=O)Nc3ccc4c(c3)OCCO4)ccc12` (stereo unspecified) returned an IC50 of 8.46 µM. The inhibition in experiment [1] and in experiment [2] was less than 50% in each case.
On to `CCOC(=O)C(C)Oc1cccc2c(=O)n(CC(=O)Nc3ccc(OCC)cc3)ccc12` (stereo unspecified), for which the half-inhibitory concentration (IC50) is 0.19 µM in experiment [4], 22.6 µM in experiment [6] and 24.2 µM in experiment [5].
For the compound `CCOC(=O)C(C)Oc1cccc2c(=O)n(CC(=O)NCc3ccc(F)cc3)ccc12` (stereo unspecified), the IC50 in experiment [4] was 0.68 µM; in experiment [6], 1.68 µM. Moreover, the inhibition in experiment [2] is less than 50%.
Consider `CCOC(=O)C(C)Oc1cccc2c(=O)n(CC(=O)NCc3ccc4c(c3)OCO4)ccc12` (stereo unspecified), for which the IC50 was 0.26 µM in experiment [4], greater than 33 µM in experiment [6] and greater than 33 µM in experiment [5].
As for `CCCCNC(=O)Cn1ccc2c(OC(C)C(=O)OCC)cccc2c1=O` (stereo unspecified), in experiment [4], the IC50 amounted to 9.71 µM. The inhibition in experiment [1] and in experiment [2] was less than 50% throughout.
In the case of `CCOC(=O)C(C)Oc1cccc2c(=O)n(CC(=O)Nc3ccc4c(c3)OCCO4)ccc12` (stereo unspecified), the IC50 is 0.76 µM in experiment [4], greater than 33 µM in experiment [6] and greater than 33 µM in experiment [5].
`CCOC(=O)C(C)Oc1cccc2c(=O)n(CC(=O)NC3CCCCC3)ccc12` (stereo unspecified) displayed an IC50 in experiment [4] of 1.77 µM. The inhibition in experiment [1] and in experiment [2] was less than 50% in each case.
Turning to `CCOC(=O)C(C)Oc1cccc2c(=O)n(C(Cc3ccccc3)C(=O)Nc3ccc4c(c3)OCCO4)ccc12` (stereo unspecified), the inhibition in experiment [1], in experiment [2] and in experiment [3] was less than 50% in each case.
`CCCCc1ccc(NC(=O)Cn2ccc3c(OC(C)C(=O)OCC)cccc3c2=O)cc1` (stereo unspecified): the IC50 in experiment [4] was found to be 0.36 µM; in experiment [6] it was 30.7 µM. Besides, in experiment [2], the inhibition is less than 50%.
The compound `CCOC(=O)C(C)Oc1cccc2c(=O)n(CC(=O)Nc3ccc(OC(F)(F)F)cc3)ccc12` (stereo unspecified) came in with an IC50 in experiment [4] of 0.2 µM. The inhibition in experiment [1] and in experiment [2] was less than 50% throughout.
`CCOC(=O)C(C)Oc1cccc2c(=O)n(CC(=O)Nc3ccc(OC)cc3)ccc12` (stereo unspecified) yielded an IC50 in experiment [4] of 0.2 µM. Moreover, the inhibition in experiment [1] and in experiment [2] was less than 50% each time.
As to `CCOC(=O)C(C)Oc1cccc2c(=O)n(CC(=O)NCc3ccccc3)ccc12` (stereo unspecified), the IC50 in experiment [4] was 1.06 µM; in experiment [6] it was 3.22 µM. For the same compound, the inhibition in experiment [2] was less than 50%.
Regarding `CCOC(=O)C(C)Oc1cccc2c(=O)n(CC(=O)Nc3ccc(C)cc3)ccc12` (stereo unspecified), the figures for the IC50 in experiment [4], in experiment [6] and in experiment [5] were 0.34 µM, 36.5 µM and greater than 33 µM, respectively.
For `CCCCOc1cccc2c(=O)n(CC(=O)Nc3ccc4c(c3)OCCO4)ccc12` the same measures were 13.7 µM, 21.5 µM and 24.1 µM.

The inhibition is the share of the control response that was lost under treatment. Higher therefore signals strong suppression. Usually IC50 stands for the concentration needed to halve the response being measured. A high value points to lower potency.
